Key:
Test in all cases: relative viability (nuclei count vs DMSO), 5 days (fraction); higher = more cells survive
[1] = compound: O=C(O)C(Cc1ccccc1[N+](=O)[O-])=NNc1nc(-c2ccc(Cl)c(Cl)c2)cs1 (mixture of isomers) [4EGI-1] + CS(=O)(=O)N1CCN(Cc2cc3nc(-c4cccc5[nH]ncc45)nc(N4CCOCC4)c3s2)CC1 [Pictilisib] (partner 1 µM)
How it was run: (§1)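 Lung cancer cell lines were seeded in 1536-well plates and dosed by pin tool the next day, with either a single drug or a fixed anchor-drug dose combined with five library-drug doses (not always all listed) spaced in √10 steps. Five days later, one step fixed the cells and stained their nuclei (final 0.05% Triton X-100, 1% formaldehyde, 1 ug/ml Hoechst), and nuclei were counted on 4× images. Relative viability is the nuclei count in treated wells divided by the count in vehicle wells, and each value is the median of duplicate plates.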

[2] = compound: O=C(O)C(Cc1ccccc1[N+](=O)[O-])=NNc1nc(-c2ccc(Cl)c(Cl)c2)cs1 (mixture of isomers) [4EGI-1] + CC(=O)Nc1cccc(-n2c(=O)n(C3CC3)c(=O)c3c(Nc4ccc(I)cc4F)n(C)c(=O)c(C)c32)c1 [Trametinib] (partner 0.02 µM)
How it was run: as §1

[3] = compound: O=C(O)C(Cc1ccccc1[N+](=O)[O-])=NNc1nc(-c2ccc(Cl)c(Cl)c2)cs1 (mixture of isomers) [4EGI-1] + O=C(CCCCCCC(=O)Nc1ccccc1)NO [Vorinostat] (partner 1 µM)
How it was run: as §1

[4] = compound: CN1CCN(CC1)C2=CC(=C(C=C2)NC3=NC=C4C(=N3)N(C5=CC=CC=C5C(=O)N4C)C)OC [XMD8-85] + N=C(N)NC(=N)NCCc1ccccc1 [Phenformin] (partner 250 µM)
How it was run: as §1

Cell Line	relative viability ([1]; first compound 0.5 µM)	relative viability ([1]; first compound 1.581 µM)	relative viability ([1]; first compound 5 µM)	relative viability ([1]; first compound 15.81 µM)	relative viability ([1]; first compound 50 µM)	relative viability ([2]; first compound 0.5 µM)	relative viability ([2]; first compound 1.581 µM)	relative viability ([2]; first compound 5 µM)	relative viability ([2]; first compound 15.81 µM)	relative viability ([2]; first compound 50 µM)	relative viability ([3]; first compound 0.5 µM)	relative viability ([3]; first compound 1.581 µM)	relative viability ([3]; first compound 5 µM)	relative viability ([3]; first compound 15.81 µM)	relative viability ([3]; first compound 50 µM)	relative viability ([4]; first compound 0.08 µM)	relative viability ([4]; first compound 0.253 µM)	relative viability ([4]; first compound 0.8 µM)	relative viability ([4]; first compound 2.53 µM)	relative viability ([4]; first compound 8 µM)
SW 1573	0.549	0.562	0.461	0.445	0.47	0.59	0.476	0.526	0.514	0.251	1.09	0.787	0.48	0.455	0.164	0.466	0.37	0.392	0.389	0.306
NCI-H520	0.332	0.315	0.378	0.367	0.162	0.947	0.83	0.749	0.724	0.145	0.877	0.73	0.887	0.773	0.153	0.574	0.6	0.557	0.543	0.446
NCI-H1944	0.357		0.331	0.33	0.285	0.481		0.354	0.314	0.334	0.611		0.603	0.489	0.418	0.186	0.195	0.228	0.207	0.151
RERF-LC-KJ	0.636	0.42	0.468	0.357	0.581	0.887	0.679	0.851	0.726	0.516	0.796	0.434	0.739	0.58	0.428	0.46	0.445	0.406	0.379	0.326
NCI-H2085	0.538	0.513	0.52	0.507	0.439	0.553	0.594	0.53	0.355	0.364	0.922	0.815	0.823	0.598	0.295	0.805	0.734	0.752	0.626	0.516
ChaGo-K-1	0.612		0.759	0.453	0.219	0.911	0.845	0.896	0.942	0.592	0.779	0.61	0.796	0.781	0.347	0.421	0.533	0.493	0.512	
NCI-H1650	0.671		0.659	0.351	0.235	0.658		0.643	0.275	0.182	0.637		0.649	0.356	0.157	0.411	0.449	0.401	0.36	0.178
NCI-H661	0.368	0.344	0.391	0.336	0.231	0.653	0.524	0.572	0.439	0.29	0.856	0.702	0.789	0.681	0.353	0.292	0.287	0.278	0.276	0.287
